The results in this text go back to patent US11364248B2 (AMGEN INC., priority 2017, dated 2022).

The term IC50 denotes the concentration at which inhibition is half-maximal.

Assay [1] addresses Mcl-1/Bim interaction (Homo sapiens (Human), UniProt Q07820). In words: Cell Free Mcl-1: Bim Affinity Assay (Mcl-1 HTRF). To be noted: TR-FRET, recombinant human Mcl-1(171-327), biotin-Bim(51-76); read-out: Mel-1 HTRF IC50. It counts as binding. A digest of the protocol:
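IC50 values came from duplicate four-parameter fits of the 665/620 nm TR-FRET ratio, read after overnight incubation with Eu anti-6×His and streptavidin-Xlent detection reagents. Beforehand, serially diluted compounds sat 60 min with Mcl-1 residues 171-327 (0.1 nM) and biotinylated Bim 51-76 peptide (0.05 nM), pH 7.5 Hepes/NaCl/DTT buffer.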
For orientation: TR-FRET usually uses a lanthanide donor and a delayed reading to cut background.

The test system of assay [2] is OPM-2. The assay is described as follows: Cell Viability Assay (OPM-2 10 FBS). Type of assay: cell-based, human. Conditions: OPM-2 cells, 16 h, CellTiter-Glo, read-out: OPM-2 10% FBS IC50 IP. The gist of the method: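 Compounds, serially diluted, were left on OPM-2 cells (3000 cells/well, 10% FBS RPMI 1640) for 16 h at 37° C. under 5% CO2.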

Mcl-1/Bim interaction, sequence (Q07820 171-327): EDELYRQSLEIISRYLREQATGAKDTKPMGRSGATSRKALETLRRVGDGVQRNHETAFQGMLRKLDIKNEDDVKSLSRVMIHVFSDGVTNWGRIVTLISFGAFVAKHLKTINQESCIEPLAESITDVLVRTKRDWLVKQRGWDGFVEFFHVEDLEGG

For the compound `COCCN(C)[C@H]1CO[C@@H]([C@H]2CCC[C@H](C)[C@@H](C)S(=O)(=O)NC(=O)c3ccc4c(c3)N(C[C@@H]3CC[C@H]32)C[C@@]2(CCCc3cc(Cl)ccc32)CO4)OC1` [Example 71, (1S,3′R,6′R,7′S,11′S,12′R)-6-chloro-7′-(cis-5-((2-methoxyethyl)(methyl)amino)-1,3-dioxan-2-yl)-11′,12′-dimethyl-3,4-dihydro-2H,15′H-spiro[naphthalene-1,22′-[20]oxa[13]thia[1,14]diazatetracyclo [14.7.2.0~3,6~.0~19,24~]pentacosa[16,18,24]trien]-15′-one 13′,13′-dioxide], the results for the IC50 in assay [1] and in assay [2] were 0.217 nM and 90 nM, respectively.
For the compound `C[C@@H]1[C@@H](C)CCC[C@H](C2OCCCO2)[C@@H]2CC[C@H]2CN2C[C@@]3(CCCc4cc(Cl)ccc43)COc3ccc(cc32)C(=O)NS1(=O)=O` [Example 8, (1S,3′R,6′R,7′S,11′S,12′R)-6-chloro-7′-(1,3-dioxan-2-yl)-11′,12′-dimethyl-3,4-dihydro-2H,15′H-spiro[naphthalene-1,22′-[20]oxa[13]thia[1,14]diazatetracyclo [14.7.2.0~3,6~.0~19,24~]pentacosa[16,18,24]trien]-15′-one 13′,13′-dioxide], the results for the IC50 in assay [1] and in assay [2] were 1.67 nM and 7360 nM, respectively.
For the compound `C[C@@H]1[C@@H](C)CCC[C@@H]([C@H]2OC[C@@H](N3CC(Cl)C3)CO2)[C@@H]2CC[C@H]2CN2C[C@@]3(CCCc4cc(Cl)ccc43)COc3ccc(cc32)C(=O)NS1(=O)=O` (single isomer, unassigned) [Example 55], the IC50 in assay [1] stood at 0.742 nM; in assay [2] it was 465 nM.
For `C[C@@H]1[C@@H](C)CCC[C@H]([C@H]2OC[C@@H](N3CC4(COC4)C3)CO2)[C@@H]2CC[C@H]2CN2C[C@@]3(CCCc4cc(Cl)ccc43)COc3ccc(cc32)C(=O)NS1(=O)=O` (relative stereo) [Example 59] the same measures were 0.319 nM and 90 nM.
As for `C[C@@H]1[C@@H](C)CCC[C@H]([C@H]2O[C@H]3CNC[C@H]3O2)[C@@H]2CC[C@H]2CN2C[C@@]3(CCCc4cc(Cl)ccc43)COc3ccc(cc32)C(=O)NS1(=O)=O` (stereo in doubt) [Example 15, (1S,3′R,6′R,7′R,11′S,12′R)-6-chloro-11′,12′-dimethyl-7′-((2r,3aR,6aS)-tetrahydro-3aH-[1,3]dioxolo[4,5-c]pyrrol-2-yl)-3,4-dihydro-2H,15′H-spiro[naphthalene-1,22′-[20]oxa[13]thia[1,14]diazatetracyclo [14.7.2.0~3,6~.0~19,24~]pentacosa[16,18,24]trien]-15′-one 13′,13′-dioxide], the figures for the IC50 in assay [1] and in assay [2] were 0.765 nM and 625 nM, respectively.
For `CN[C@H]1CO[C@H]([C@H]2CCC[C@H](C)[C@@H](C)S(=O)(=O)NC(=O)c3ccc4c(c3)N(C[C@@H]3CC[C@H]32)C[C@@]2(CCCc3cc(Cl)ccc32)CO4)OC1` [Example 48, (1S,3′R,6′R,7′S,11′S,12′R)-6-chloro-11′,12′-dimethyl-7′-(trans-5-(methylamino)-1,3-dioxan-2-yl)-3,4-dihydro-2H,15′H-spiro[naphthalene-1,22′-[20]oxa[13]thia[1,14]diazatetracyclo [14.7.2.0~3,6~.0~19,24~]pentacosa[16,18,24]trien]-15′-one 13′,13′-dioxide] the same measures were 0.59 nM and 184 nM.
With `C[C@@H]1[C@@H](C)CCC[C@H]([C@H]2OC[C@H](N3C(=O)c4ccccc4C3=O)CO2)[C@@H]2CC[C@H]2CN2C[C@@]3(CCCc4cc(Cl)ccc43)COc3ccc(cc32)C(=O)NS1(=O)=O` (relative stereo) [Example 44], the IC50 in assay [1] was 2.08 nM; in assay [2], greater than 33300 nM.
